# Measured values taken from patent EP1752149A1 (LABORATORIOS DEL DR. ESTEVE, S.A., priority 2005, dated 2007).
# Legend:
# [1] = tested on: cyclooxygenase-2 (COX-LUC); experiment: COX2-LUC promoter luciferase reporter in THP-1 cells; assay type: cell-based, human; settings: THP-1 (LPS); for IC50: Homo sapiens, approximated value, read-out: COX2-LUC IC-50
# Description: (§1) It was also analyzed how these compounds affect transcriptional induction mediated by the transcription factors Nuclear factor of activated T cells (NFAT) or Nuclear factor (NF)-κB. In these experiments, Jurkat T cells or THP-1 cells were transiently transfected by the Lipofectamine2000 reagent (Invitrogen), with luciferase reporter constructs whose expression are directed by three copies of the Interleukin-2 (IL-2) NFAT responsive element (NFAT-LUC) or by three copies of an NF-κB responsive element (NF-κB-LUC). Cells were treated with increased doses of the compound according to example 1 in the presence or absence of stimulation with the phorbol ester PMA (15 ng/ml) plus the A23187 calcium ionophore (1µM) for 6 hours in Jurkat cells or with LPS (5 µg/ml) for 18 hours in THP-1 cells and luciferase activity was measured in cell lysates. Results obtained are represented as percentage of activation, considering 100% the value of luciferase activity obtained in stimulated cells in the absence of the compound according to example 1. The approximate IC-50 (µM) values for the inhibition of the transcriptional activation of NFAT and NF-κB are also shown (Table 2).
# (§2) The compound according to example 1 was measured for its ability to regulate gene transcription in immune activation through the modulation of the transcriptional activity of luciferase reporter constructs whose expression is directed by the promoter region of genes involved in the inflammation process and immune activation, such as cyclooxygenase-2 (COX-LUC), tumor necrosis factor α (TNF-LUC), Interleukin-2 (IL-2-LUC), Interleukin-6 (IL-6-LUC) and the inducible Nitric Oxide Synthase (iNOS-LUC). Jurkat T cells or THP-1 cells were transiently transfected with these constructs as described above, and treated with different doses of The compound according to example 1 in the presence or absence of stimulation with PMA plus Ion (Jurkat) or LPS in a similar way as for NFAT-LUC and NFKB-LUC reporter analysis. Results are represented as percentage of activation, considering 100% the value of luciferase activity obtained in stimulated cells in the absence of the compound according to example 1. Approximated IC50 (µM) values obtained for inhibition of the transcriptional activation are summarized in tables 3 (Jurkat) and 4 (THP-1).
# [2] = In-vivo bioassay system for determination of cannabinoid activity (hot-plate test, hypothermia, catalepsy, sedation); settings: for Agonistic effect A: Hot-Plate test / Agonistic effect B: Hypothermia / Agonistic effect C: Catalepsy / Agonistic effect D: Sedation: 5 mg/kg i.v.
# [3] = tested on: tumor necrosis factor α (TNF-LUC); experiment: TNF-LUC promoter luciferase reporter in THP-1 cells; assay type: cell-based, human; settings: THP-1 (LPS); for IC50: Homo sapiens, approximated value, read-out: TNF-LUC IC-50
# Description: as §1, §2
# [4] = Cell viability, tetrazolium salt WST-1, LPS treated THP-1 cells; assay type: cell-based; settings: human, THP-1 (LPS 5 µg/ml), read-out: percentage of viability
# Description: (§3) The viability of the cells was measured by the use of the tetrazolium salt WST-1 (Roche Molecular Biochemicals). Unstimulated Jurkat cells or LPS (5 µg/ml) treated THP-1 cells were incubated for 24 or 18 hours respectively in the presence of increasing doses of the compound according to example 1 (1, 10, 100, 1000 and 10000 nM) and incubated with 10% of WST-1 reagent for 1 hour. Quantification of the formazan dye produced by metabolically active cells was spectrophotometrically measured at 450 nm and a reference wavelength of 630 nm. Data are represented as percentage of viability considering 100% the value of absorbance obtained in the absence of example 1 (Table 1).
# [5] = tested on: tumor necrosis factor α (TNF-LUC); experiment: TNF-LUC promoter luciferase reporter in Jurkat T cells; assay type: cell-based, human; settings: Jurkat (PMA+Ion); for IC50: Homo sapiens, approximated value, read-out: TNF-LUC IC-50
# Description: as §1, §2
# [6] = tested on: cyclooxygenase-2 (COX-LUC); experiment: COX2-LUC promoter luciferase reporter in Jurkat T cells; assay type: cell-based, human; settings: Jurkat (PMA+Ion); for IC50: Homo sapiens, approximated value, read-out: COX2-LUC IC-50
# Description: as §1, §2
# TNFα = experiment: Inhibition of cytokine production: TNFα secretion by Jurkat T cells, ELISA; assay type: cell-based, human; settings: Jurkat (PMA+Ion), 24 hours; for IC50: Homo sapiens, approximated value, read-out: TNF IC-50 (µM), inhibition of the cytokine production
# Description: (§4) In addition to the transcriptional assays, we have also determined the effects of the compound according to example 1 in the secretion of TNFα and IL-2 to the culture medium. Jurkat T cells were treated with different doses of the compound according to example 1 in the presence or absence of stimulation with PMA plus Ion for 24 hours. Supematants were collected and cytokines were measured by specific ELISA for each cytokine (Bender MedSystems). Results are represented as percentage of cytokine production, considering 100% the maximal levels of cytokine production (pg/ml) obtained in PMA+lon stimulated Jurkat cells in the absence of the compound according to example 1.
# [7] = tested on: Nuclear factor of activated T cells (NFAT); experiment: NFAT-LUC luciferase reporter, transcriptional activation in Jurkat T cells; assay type: cell-based, human; settings: Jurkat (PMA+Ion), 6 hours; for IC50: Homo sapiens, approximate value, read-out: NFAT-LUC IC-50
# Description: as §1
# [8] = tested on: inducible Nitric Oxide Synthase (iNOS-LUC); experiment: iNOS-LUC promoter luciferase reporter in THP-1 cells; assay type: cell-based, human; settings: THP-1 (LPS); for IC50: Homo sapiens, approximated value, read-out: iNOS-LUC IC-50
# Description: as §1, §2
# Interleukin-2 (IL-2-LUC) = experiment: IL-2-LUC promoter luciferase reporter in Jurkat T cells; assay type: cell-based, human; settings: Jurkat (PMA+Ion); for IC50: Homo sapiens, approximated value, read-out: IL-2-LUC IC-50
# Description: as §1, §2
# Nuclear factor (NF)-κB [9] = experiment: NF-κB-LUC luciferase reporter, transcriptional activation in THP-1 cells; assay type: cell-based, human; settings: THP-1 (LPS), 18 hours; for IC50: Homo sapiens, approximate value, read-out: NF-κB-LUC IC-50
# Description: as §1
# Nuclear factor (NF)-κB [10] = experiment: NF-κB-LUC luciferase reporter, transcriptional activation in Jurkat T cells; assay type: cell-based, human; settings: Jurkat (PMA+Ion), 6 hours; for IC50: Homo sapiens, approximate value, read-out: NF-κB -LUC IC-50
# Description: as §1
# Interleukin-6 (IL-6-LUC) = experiment: IL-6-LUC promoter luciferase reporter in Jurkat T cells; assay type: cell-based, human; settings: Jurkat (PMA+Ion); for IC50: Homo sapiens, approximated value, read-out: IL-6-LUC IC-50
# Description: as §1, §2
# [11] = Cell viability, tetrazolium salt WST-1, unstimulated Jurkat cells; assay type: cell-based; settings: human, Jurkat (Cont), read-out: percentage of viability
# Description: as §3
# IL-2 = experiment: Inhibition of cytokine production: IL-2 secretion by Jurkat T cells, ELISA; assay type: cell-based, human; settings: Jurkat (PMA+Ion), 24 hours; for IC50: Homo sapiens, approximated value, read-out: IL-2 IC-50 (µM), inhibition of the cytokine production
# Description: as §4
# [12] = 5 mg/kg i.v. prior to Win 55212-2 in a dose of 1,25mg/kg i.v.
smiles,measurement,setting,value
"O=C(NN1CCCCC1)C1=NN(c2ccc(Cl)cc2Cl)C(c2ccc(Cl)cc2)C1 (stereo not shown) [Example 1, N-piperidinyl-5-(4-chlorophenyl)-1-(2,4-dichlorophenyl)-4,5-dihydro-1H-pyrazole-3-carboxamide]",IC50,[1],2000 nM
same,COX2-LUC percentage of activation,[1]; 0.01 µM,102.7%
same,COX2-LUC percentage of activation,[1]; 1 µM,59.6%
same,COX2-LUC percentage of activation,[1]; 10 µM,6.8%
same,Agonistic effect A: Hot-Plate test,[2],0
same,Agonistic effect B: Hypothermia,[2],0
same,Agonistic effect C: Catalepsy,[2],0
same,Agonistic effect D: Sedation,[2],0
same,Antagonistic Effect B: Hypothermia,[2]; [12],100
same,Antagonistic Effect C: Catalepsy,[2]; [12],100
same,Antagonistic Effect D: Sedation,[2]; [12],100
same,IC50,[3],3000 nM
same,TNF-LUC percentage of activation,[3]; 0.01 µM,104.4%
same,TNF-LUC percentage of activation,[3]; 1 µM,65.4%
same,TNF-LUC percentage of activation,[3]; 10 µM,12.7%
same,"viability at 18 h, 0.01 µM",[4]; 10 nM,105%
same,"viability at 18 h, 1 µM",[4]; 1000 nM,110%
same,"viability at 18 h, 10 µM",[4]; 10000 nM,80.2%
same,IC50,[5],100 nM
same,TNF-LUC percentage of activation,[5]; 0.01 µM,59.5%
same,TNF-LUC percentage of activation,[5]; 1 µM,29.9%
same,TNF-LUC percentage of activation,[5]; 10 µM,13.7%
same,IC50,[6],8000 nM
same,COX2-LUC percentage of activation,[6]; 0.01 µM,102.7%
same,COX2-LUC percentage of activation,[6]; 1 µM,93.2%
same,COX2-LUC percentage of activation,[6]; 10 µM,31.5%
same,IC50,TNFα,5 µM
same,TNF percentage of cytokine production,TNFα; 0.01 µM,79.5%
same,TNF percentage of cytokine production,TNFα; 1 µM,80.3%
same,TNF percentage of cytokine production,TNFα; 10 µM,11.5%
same,IC50,[7],3000 nM
same,NFAT-LUC percentage of activation,[7]; 0.01 µM,72.4%
same,NFAT-LUC percentage of activation,[7]; 1 µM,56.8%
same,NFAT-LUC percentage of activation,[7]; 10 µM,7.4%
same,IC50,[8],4000 nM
same,iNOS-LUC percentage of activation,[8]; 0.01 µM,89.5%
same,iNOS-LUC percentage of activation,[8]; 1 µM,71.3%
same,iNOS-LUC percentage of activation,[8]; 10 µM,13.2%
same,IC50,Interleukin-2 (IL-2-LUC),1000 nM
same,IL-2-LUC percentage of activation,Interleukin-2 (IL-2-LUC); 0.01 µM,85.9%
same,IL-2-LUC percentage of activation,Interleukin-2 (IL-2-LUC); 1 µM,49.0%
same,IL-2-LUC percentage of activation,Interleukin-2 (IL-2-LUC); 10 µM,9.9%
same,IC50,Nuclear factor (NF)-κB [9],6000 nM
same,NF-κB-LUC percentage of activation,Nuclear factor (NF)-κB [9]; 0.01 µM,100.4%
same,NF-κB-LUC percentage of activation,Nuclear factor (NF)-κB [9]; 1 µM,104.6%
same,NF-κB-LUC percentage of activation,Nuclear factor (NF)-κB [9]; 10 µM,3.4%
same,IC50,Nuclear factor (NF)-κB [10],7000 nM
same,NF-κB-LUC percentage of activation,Nuclear factor (NF)-κB [10]; 0.01 µM,94.7%
same,NF-κB-LUC percentage of activation,Nuclear factor (NF)-κB [10]; 1 µM,74.4%
same,NF-κB-LUC percentage of activation,Nuclear factor (NF)-κB [10]; 10 µM,39.3%
same,IC50,Interleukin-6 (IL-6-LUC),4000 nM
same,IL-6-LUC percentage of activation,Interleukin-6 (IL-6-LUC); 0.01 µM,82.3%
same,IL-6-LUC percentage of activation,Interleukin-6 (IL-6-LUC); 1 µM,61.8%
same,IL-6-LUC percentage of activation,Interleukin-6 (IL-6-LUC); 10 µM,18.6%
same,"viability at 24 h, 0.01 µM",[11]; 10 nM,92.6%
same,"viability at 24 h, 0.1 µM",[11]; 100 nM,95.4%
same,"viability at 24 h, 1 µM",[11]; 1000 nM,96.3%
same,"viability at 24 h, 10 µM",[11]; 10000 nM,97.7%
same,IC50,IL-2,6 µM
same,IL-2 percentage of cytokine production,IL-2; 0.01 µM,97.5%
same,IL-2 percentage of cytokine production,IL-2; 1 µM,98.7%
same,IL-2 percentage of cytokine production,IL-2; 10 µM,13.2%
"O=C(C1=NN(c2ccc(Cl)cc2Cl)C(c2ccc(Cl)cc2)C1)N1CCCCC1 (stereo not shown) [Example 5, [5-(4-Chloro-phenyl)-1-(2,4-dichloro-phenyl)-4,5-dihydro-1H-pyrazol-3-yl]-piperidin-1-yl-methanone]",Agonistic effect A: Hot-Plate test,[2],0
same,Agonistic effect B: Hypothermia,[2],50
same,Agonistic effect C: Catalepsy,[2],0
same,Agonistic effect D: Sedation,[2],0
same,Antagonistic Effect A: Hot-Plate test,[2]; [12],50
same,Antagonistic Effect B: Hypothermia,[2]; [12],40
same,Antagonistic Effect C: Catalepsy,[2]; [12],20
same,Antagonistic Effect D: Sedation,[2]; [12],20
"Cc1c(C(=O)NN2CCCCC2)nn(-c2ccc(Cl)cc2Cl)c1-c1ccc(Cl)cc1 [SR141716, reference compound]",IC50,[1],6000 nM
same,IC50,[3],3000 nM
same,IC50,[5],10 nM
same,IC50,[6],> 10000 nM
same,IC50,TNFα,6 µM
same,IC50,[7],200 nM
same,IC50,[8],3000 nM
same,IC50,Interleukin-2 (IL-2-LUC),100 nM
same,IC50,Nuclear factor (NF)-κB [9],5000 nM
same,IC50,Nuclear factor (NF)-κB [10],1000 nM
same,IC50,Interleukin-6 (IL-6-LUC),1000 nM
same,IC50,IL-2,7 µM
